Assay results reported in PMC10945480 (Journal of Medicinal Chemistry, 2024).
Read-outs that look alike come from different tables or passages of the source.

Tests used:
[1] = tested on: washed human platelets; assay: U46619-induced platelet aggregation; type: cell-based; settings: Platelet; washed human platelets, U46619 (1 μM)
Protocol: (§1) The antiplatelet effects of the JUG derivatives were evaluated by measuring human platelet aggregation, which can be regulated by cell surface PDI. Platelet aggregation was induced with platelet activators U46619 (a mimetic of thromboxane A2) and collagen (binding to GPVI).
(§2) Washed human platelets were prepared from acid citrate dextrose-anticoagulated blood of healthy human volunteers as described previously.[73] The study was approved by the Institutional Review Board of Kaohsiung Medical University, and informed consent was obtained from every volunteer. Platelet aggregation was measured by using a turbidimetric aggregometer (Chrono-Log Co., USA) under stirring conditions (1200 rpm) at 37 °C. The extent of platelet aggregation was measured as the maximal increase of light transmission after the addition of the stimulators U46619 and collagen.[73] In the TCIPA assay, platelet aggregation was induced by A549 (1 × 10^4 cells/mL), MDA-MB-231 (1 × 10^2 cells/mL), or RPMI8226 (1 × 10^5 cells/mL) cancer cells in the presence of 0.375% plasma.[74]

[2] = tested on: washed human platelets; assay: Collagen-induced platelet aggregation; type: cell-based; settings: Platelet; washed human platelets, collagen (5 μg/mL)
Protocol: as §1, §2

[3] = molecular target: T1, ERp57 (PDIA3) (Homo sapiens, UniProt P30101); assay: ERp57 reductase assay (Di-E-GSSG); type: biochemical; settings: ERp57 and ERp72 together, fold higher than required to inhibit PDI
T1 sequence (P30101 25-505): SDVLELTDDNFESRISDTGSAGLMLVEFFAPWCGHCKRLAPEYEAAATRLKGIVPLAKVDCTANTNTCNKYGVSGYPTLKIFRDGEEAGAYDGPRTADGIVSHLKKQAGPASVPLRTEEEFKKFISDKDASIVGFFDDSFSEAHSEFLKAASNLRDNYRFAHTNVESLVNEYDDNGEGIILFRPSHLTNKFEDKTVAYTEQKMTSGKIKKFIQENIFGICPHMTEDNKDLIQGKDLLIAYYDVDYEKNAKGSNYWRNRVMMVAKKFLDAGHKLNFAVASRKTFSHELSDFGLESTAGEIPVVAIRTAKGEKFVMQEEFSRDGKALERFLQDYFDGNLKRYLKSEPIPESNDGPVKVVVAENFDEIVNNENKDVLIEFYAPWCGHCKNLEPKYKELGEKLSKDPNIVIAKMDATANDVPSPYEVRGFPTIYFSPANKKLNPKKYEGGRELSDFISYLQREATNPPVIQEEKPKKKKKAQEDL
Text: In addition to PDI, ERp57 (PDIA3) and ERp72 (PDIA4) are two other major members of the PDI family in both platelets and A549 cells.[62],[63]

[4] = Parallel artificial membrane permeability assay (PAMPA); settings: 50 μM, 25 ℃, 3 h, verapamil = 100%, ranitidine = 0%
Protocol: 1. Parallel artificial membrane permeability assay (PAMPA). […]
evolution instruments from pION Inc. In the PAMPA assay, a set of sandwich plates consists of a 96-well microtiter donor plate at the bottom and a 96-well filter acceptor plate on the top from […]
The stock solutions of samples were prepared at 10 mM concentrations in DMSO and stored at 0 ℃ before use. Before being added to a 96-well filter plate, the stock solution was diluted first with buffer to achieve a final sample concentration of 50 μM and to reduce the DMSO concentration below 1% (v/v). Each well of the 96-well donor plate was filled with a 200 μL diluted sample solution (50 μM), and the 96-well filter acceptor plate was then wetted with a 5 μL 2% w/v dioleyoylphosphatidylcholine (DOPC) in n-dodecane and subsequently placed on the donor wells.
Immediately, the acceptor wells were filled with 200 μL of buffer solution and the PAMPA plate sandwich was sealed and incubated at 25 ℃ for 3 h. After reaching the permeation time, the PAMPA plate sandwich was separated and transferred to 96-well UV plates respectively. The amounts of drugs in both the donor and acceptor compartments were measured by comparing the experimental spectra with the UV spectrum (220∼400 nm) obtained from reference standards.

[5] = tested on: washed human platelets coincubated with A549, MDA-MB-231, or RPMI8226 cancer cells; assay: Tumor cell-induced platelet aggregation (TCIPA); type: cell-based; settings: 2 μM; A549, MDA-MB-231, RPMI8226 cells, in the presence of plasma
[6] = tested on: washed human platelets coincubated with A549 cancer cells; assay: Tumor cell-induced platelet secretion (PDGF, ATP); type: cell-based
Protocol: (§3) (a) Washed human platelets were coincubated with A549 cancer cells under the same conditions as described in Figure 4. Secretion of PDGF and ATP were determined with the enzyme-linked immunosorbent assay (ELISA) and bioluminescent assay, respectively. (b) A549 cancer cells were coincubated with washed human platelets at 37 °C and 5% CO2 in a cell culture incubator for 48 h. After washing with PBS, the numbers of viable cancer cells were determined by trypan blue exclusion. Data are mean ± SEM of at least three independent experiments.
Washed human platelets were coincubated with cancer cells under the same conditions as described in the TCIPA assay. After a 25 min incubation in the aggregometer, the samples were centrifuged at 13,000g for 1 min. The concentrations of PDGF-BB and ATP in the supernatants were determined using an ELISA kit (Abcam, Cambridge, UK) and an ATP bioluminescent assay kit (Sigma, MO, USA), respectively.[52]

[7] = tested on: A549 cancer cells; assay: Platelet-enhanced tumor cell proliferation; type: cell-based, human; settings: A549 plus platelets, 48 h, 0.5 to 2 μM
Protocol: In order to examine platelet-enhanced cancer cell growth, A549 cancer cells were coincubated with platelets for 48 h.
as §3, with “Figure 5 Inhibitory effects of JUG derivatives 18 and 22 on tumor cell-induced platelet secretion and platelet-enhanced tumor cell proliferation. (a)” for “(a)”, “experiments. In (a), *P < 0.05; **P < 0.01; ***P < 0.001 as compared with vehicle control (DMSO). In (b), *P < 0.05; **P < 0.01; ***P < 0.001 as compared with A549 cells plus platelets.” for “experiments.”
A549 cells (1 × 10^4 cells/well) were seeded in a 96-well plate and coincubated with wash human platelets (1 × 10^7 cells/well) containing with 0.375% plasma for 48 h at 37 °C and 5% CO2 in a cell culture incubator. After washing with phosphate buffered saline, the numbers of viable cancer cells were determined by trypan blue exclusion.

[8] = tested on: glioma U87; assay: Cell viability, resazurin assay, U87; settings: Homo sapiens, 24 h, read-out: U87 IC50
Protocol: (§5) Cells were maintained in a humidified incubator at 37 °C in 5% CO2, and cell viability was determined with the resazurin assay (Cayman Chemical, USA) after the incubation with compounds for indicated concentrations and times or DMSO as control.[72]

[9] = tested on: lung cancer A549; assay: Cell viability, resazurin assay, A549; settings: Homo sapiens, A549, 24 h, read-out: A549 IC50
Protocol: as §5

[10] = tested on: multiple myeloma RPMI8226; assay: Cell viability, resazurin assay, RPMI8226; settings: for S.I. (EAhy926/RPMI8226), selectivity index: 24 h IC50 ratio; for IC50: Homo sapiens
Protocol: as §5

[11] = tested on: human vascular endothelial EA.hy926 cells; assay: Cell viability, resazurin assay, EA.hy926; settings: EA.hy 926, 24 h, read-out: EAhy926 IC50
Protocol: as §5

[12] = tested on: breast cancer MDA-MB-231; assay: Cell viability, resazurin assay, MDA-MB-231; settings: Homo sapiens, MDA-MB-231, 24 h, read-out: MDA-MB-231 IC50
Protocol: as §5

[13] = molecular target: purified human recombinant PDI (rPDI) (Homo sapiens, UniProt P07237); assay: Recombinant PDI reductase activity (Di-E-GSSG assay); settings: human recombinant PDI, Di-E-GSSG
Sequence of purified human recombinant PDI (rPDI) (P07237 18-508): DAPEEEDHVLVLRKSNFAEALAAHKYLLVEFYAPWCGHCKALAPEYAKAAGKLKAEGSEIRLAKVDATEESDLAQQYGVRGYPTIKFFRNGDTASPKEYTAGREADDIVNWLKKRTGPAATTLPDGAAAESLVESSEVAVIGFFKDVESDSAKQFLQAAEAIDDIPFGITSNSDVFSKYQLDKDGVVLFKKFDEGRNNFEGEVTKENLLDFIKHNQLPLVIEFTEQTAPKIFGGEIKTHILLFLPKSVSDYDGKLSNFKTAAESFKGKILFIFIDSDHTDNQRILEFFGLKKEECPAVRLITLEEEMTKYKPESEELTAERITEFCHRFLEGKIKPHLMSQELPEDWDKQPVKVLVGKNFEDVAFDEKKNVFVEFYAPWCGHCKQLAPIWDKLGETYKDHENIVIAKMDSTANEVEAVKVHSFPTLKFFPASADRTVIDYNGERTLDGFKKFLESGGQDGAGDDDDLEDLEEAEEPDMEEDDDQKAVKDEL
Protocol: (§6) In this assay, a nonfluorescent substrate, dieosin glutathione disulfide (Di-E-GSSG), was reduced into a fluorescent product eosin-glutathione (E-GSH) by platelet surface PDI in the presence of 5 μM dithiothreitol (DTT).

[14] = molecular target: platelet surface PDI (Homo sapiens, UniProt P07237); assay: Cell surface PDI reductase activity on intact human platelets (Di-E-GSSG assay); settings: read-out: Surface PDI IC50; intact human platelets, Di-E-GSSG, 5 μM DTT
Sequence of platelet surface PDI (P07237 18-508): as above
Protocol: as §6

[15] = molecular target: Human rPDI (Homo sapiens, UniProt P07237); assay: Effect of GSH on rPDI inhibition (Di-E-GSSG assay); type: biochemical; settings: 10 μM compound, 1 mM GSH vs 5 μM DTT
Sequence of Human rPDI (P07237 18-508): as above
Protocol: (§4) GSH is the major cellular nonprotein thiol, which exists within cells at millimolar concentrations (1–8 mM) while is present extracellularly at only a few micromolar.[53] The high concentrations of intracellular GSH thus may compete with the binding of PDI to covalent PDI inhibitors.[54] […] In this assay, the noncovalent PDI inhibitor isoquercetin was used as a negative control.
Data are mean ± SEM of three independent experiments.

[16] = tested on: PDI; set-up: method as in PMID 22565308, PMID 22988091, PMID 27197150, PMID 24070012, PMID 24624466; settings: reported PDI inhibitors, Figure 1b; read-out: PDI IC50 measured by the insulin-aggregation assay; cited from earlier work
[17] = UPLC-MS analysis of compound metabolites in water with or without GSH; type: physicochemical; settings: 37 °C, 30 min
Protocol: as §4
Compounds (400 μM) were incubated in water (250 μL) with or without GSH (4 mM) at 37 °C for 30 min. The compound mixture was diluted with methanol (250 μL) and used for UPLC-MS analysis Metabolite analysis was performed on an ACQUITY UPLC I-Class/SQ Detector 2 (Waters, Milford, USA). The reverse phase BEH C18 column (100 mm × 2.1 mm, 1.7 μm, Waters) and VanGuard BEH C18 guard column (5 mm × 2.1 mm, 1.7 μm, Waters) were used. All data were acquired by Empower 3. The mobile phase for LC separation was Millipore water (A) and acetonitrile (B), and the program was as follows: 0.00 min 90% A → 0.50 min 90% A → 6.50 min 5% A → 8.50 min 5% A → 8.60 min 90% A → 9.00 min 90% A; at a rate of 0.4 mL/min for 9.00 min with 5 μL per injection. The temperature of the column oven was maintained at 40 °C. Mass spectrometer parameters were set as follows: cone voltage, 40.0 V, for positive/negative ion mode; desolvation temperature, 200 °C; cone gas flow(N2), 1 L/h; and desolvation gas flow (N2), 650 L/h.

[18] = RPMI-8226, 24 h, read-out: RPMI8226 IC50

Row | SMILES | IC50 [1] [µM] | IC50 [2] [µM] | Permeability (%) [4] [%] | IC50 [8] [µM] | IC50 [9] [µM] | S.I. (EAhy926/RPMI8226), selectivity index [10] | IC50 [10, 18] [µM] | IC50 [11] [µM] | IC50 [12] [µM] | IC50 ([13]; read-out: PDI IC50, Table 4) [µM] | IC50 ([13]; read-out: rPDI IC50, 5 μM DTT) [µM] | IC50 [14] [µM] | PDI-inhibitory activity in the presence of GSH [15] | IC50 [16] [µM] | also measured
1 | CC(=O)OC[C@H]1O[C@H](OC2=CC(=O)c3cccc(O)c3C2=O)[C@H](OC(C)=O)[C@@H](OC(C)=O)[C@@H]1OC(C)=O [Compound 22, 2-(2,3,4,6-Tetra-α-O-acetylglucopyranosyl)-8-hydroxynaphthalene-1,4-dione] | 1.54 ± 0.02 | 0.5 ± 0.08 | 57.45 | 3.22 ± 0.37 | 8.95 ± 0.23 | 8.2 | 0.66 ± 0.08 | 5.42 ± 0.05 | 4.42 ± 0.98 | 0.63 ± 0.12 | 0.63 ± 0.12 | 0.62 ± 0.06 |  |  | concentrations inhibiting ERp57 and ERp72 relative to PDI [3]: 4 to 7 fold; prevention of TCIPA [5]: significantly prevented TCIPA; tumor cell-induced increase in extracellular PDGF and ATP (platelet secretion) [6]: reduced; platelet-enhanced cancer cell growth [7]: to a lesser extent; IC50 ([10]; RPMI-8226, 72 h, read-out: RPMI8226 IC50, 72 h): 0.048 µM
2 | O=C1C=CC(=O)c2c(O)cccc21 [JUG (7), 5-hydroxy-1,4-naphthoquinone, reference compound] | 4.45 ± 0.47 | 1.18 ± 0.14 | 83.43 | 7.45 ± 0.33 | 11.9 ± 0.6 |  | 3.95 ± 0.7 | 5.57 ± 0.02 | 6.15 ± 0.78 | 1.1 ± 0.17 | 1.1 ± 0.17 | 0.63 ± 0.07 | completely lost PDI-inhibitory activity |  | 
3 | CCOC(=O)C1(CCOc2ccccc2)CCN(Cc2ccc(O)c(Cl)c2)CC1 [ML359] |  |  |  |  |  |  |  |  |  |  |  |  |  | 0.25 | 
4 | N#Cc1cccc(/C=C/C(=O)c2ccc(O)cc2)c1 [BAP-2] |  |  |  |  |  |  |  |  |  |  |  |  |  | 0.93 | 
5 | CC(=O)OC[C@H]1O[C@@H](SC2=C(c3ccc(O)cc3O)C(=O)c3c(O)cccc3C2=O)[C@H](OC(C)=O)[C@@H](OC(C)=O)[C@@H]1OC(C)=O [Compound 31, 2-(2,4-Dihydroxyphenyl)-3-(2,3,4,6-tetra-O-acetyl-1-thio-β-D-glucopyranose)-8-hydroxynaphthalene-1,4-dione] | 3.54 ± 0.11 | 6.65 ± 1.74 | 28.86 | 7.39 ± 0.22 | 12.6 ± 1.51 | 2.2 | 3.07 ± 0.29 | 6.87 ± 0.21 | 11.3 ± 1.09 |  | 0.67 ± 0.09 | 0.46 ± 0.07 | largely reduced by GSH |  | stability in aqueous conditions (UPLC-MS) ([17]; 400 μM in water): easily hydrolyzed in aqueous condition; GSH adduct formation after GSH treatment (UPLC-MS) ([17]; 400 μM, GSH 4 mM): significant amount of GSH addition product
